Data taken from ChEMBL document CHEMBL1201862, “PubChem BioAssay data set” (2004).
Activity calls are given as the source filed them. For most assays here, no stated cut-off is given here; in the data, actives have a measured IC50 and inactives only a lower limit.

How the values were obtained:
[1] = target: T1, Sentrin-specific protease 7 (Homo sapiens, UniProt Q9BQF6); assay: inhibition of human SENP7 cleavage activity – biochemical, luminescence, SAR follow-up (AID 504497); type: functional
T1 sequence (Q9BQF6 whole entry): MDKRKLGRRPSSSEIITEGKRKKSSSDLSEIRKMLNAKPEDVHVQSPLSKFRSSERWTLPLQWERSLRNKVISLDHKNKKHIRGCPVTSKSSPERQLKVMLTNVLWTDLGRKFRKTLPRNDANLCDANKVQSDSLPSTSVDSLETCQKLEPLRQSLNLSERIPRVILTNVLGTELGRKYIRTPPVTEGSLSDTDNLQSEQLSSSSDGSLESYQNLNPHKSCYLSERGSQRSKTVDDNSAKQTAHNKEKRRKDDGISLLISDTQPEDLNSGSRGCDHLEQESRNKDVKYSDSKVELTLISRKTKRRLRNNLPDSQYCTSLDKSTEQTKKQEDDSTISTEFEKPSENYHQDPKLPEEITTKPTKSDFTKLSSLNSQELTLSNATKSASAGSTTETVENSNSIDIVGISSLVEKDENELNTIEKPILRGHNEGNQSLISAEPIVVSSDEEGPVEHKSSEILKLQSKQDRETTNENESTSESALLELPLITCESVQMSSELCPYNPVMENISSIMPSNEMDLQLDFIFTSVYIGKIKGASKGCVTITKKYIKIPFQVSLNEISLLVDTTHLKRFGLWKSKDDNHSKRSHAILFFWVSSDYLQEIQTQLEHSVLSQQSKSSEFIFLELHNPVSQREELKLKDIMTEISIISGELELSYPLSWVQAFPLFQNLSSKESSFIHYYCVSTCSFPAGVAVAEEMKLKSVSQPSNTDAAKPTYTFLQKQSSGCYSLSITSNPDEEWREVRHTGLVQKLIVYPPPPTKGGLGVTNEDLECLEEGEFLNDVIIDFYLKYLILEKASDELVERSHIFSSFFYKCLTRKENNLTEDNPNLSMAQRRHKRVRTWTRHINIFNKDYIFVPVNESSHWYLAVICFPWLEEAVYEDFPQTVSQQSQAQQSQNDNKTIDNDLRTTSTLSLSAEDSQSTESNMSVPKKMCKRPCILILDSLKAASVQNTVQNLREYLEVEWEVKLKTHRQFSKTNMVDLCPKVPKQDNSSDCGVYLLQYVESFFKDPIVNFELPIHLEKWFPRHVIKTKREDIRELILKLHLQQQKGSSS

[2] = target: T2, Sentrin-specific protease 8 (Homo sapiens, UniProt Q96LD8); assay: inhibition of human SENP8 cleavage activity – biochemical, luminescence, SAR follow-up (AID 504501); type: functional
T2 sequence (Q96LD8 whole entry): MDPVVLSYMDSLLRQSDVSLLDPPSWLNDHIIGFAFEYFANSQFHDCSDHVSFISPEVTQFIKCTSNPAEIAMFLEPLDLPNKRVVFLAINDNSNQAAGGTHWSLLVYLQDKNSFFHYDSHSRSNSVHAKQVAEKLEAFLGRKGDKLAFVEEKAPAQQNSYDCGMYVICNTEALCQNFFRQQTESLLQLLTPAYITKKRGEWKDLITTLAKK

[3] = target: T3, Estrogen receptor (Homo sapiens, UniProt P03372);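 further: potency for inhibiting coactivator peptide recruitment to the receptor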
T3 sequence (P03372 whole entry): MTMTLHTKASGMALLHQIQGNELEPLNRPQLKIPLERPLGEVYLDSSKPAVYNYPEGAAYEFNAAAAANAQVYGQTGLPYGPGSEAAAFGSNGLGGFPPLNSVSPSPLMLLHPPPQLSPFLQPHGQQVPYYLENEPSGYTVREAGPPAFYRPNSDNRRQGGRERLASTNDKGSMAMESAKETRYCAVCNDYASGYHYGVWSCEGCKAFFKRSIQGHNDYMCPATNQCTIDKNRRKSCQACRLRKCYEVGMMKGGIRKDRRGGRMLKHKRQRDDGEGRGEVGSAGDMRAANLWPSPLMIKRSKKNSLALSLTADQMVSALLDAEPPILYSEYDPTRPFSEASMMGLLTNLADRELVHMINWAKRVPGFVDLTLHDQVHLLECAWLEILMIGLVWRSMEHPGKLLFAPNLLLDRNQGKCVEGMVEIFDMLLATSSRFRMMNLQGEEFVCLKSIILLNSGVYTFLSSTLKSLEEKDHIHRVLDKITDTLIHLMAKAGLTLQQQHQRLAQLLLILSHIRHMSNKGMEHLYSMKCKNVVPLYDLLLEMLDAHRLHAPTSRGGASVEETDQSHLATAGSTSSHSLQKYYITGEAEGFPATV

[4] = target: T4, Sentrin-specific protease 6 (Homo sapiens, UniProt Q9GZR1); assay: SAR Analysis of small molecule inhibitors of Sentrin-specific protease 6 (SENP6) using a Luminescent assay. [Related pubchem assays (depositor defined):AID2582, AID2599]; type: functional
T4 sequence (Q9GZR1 whole entry): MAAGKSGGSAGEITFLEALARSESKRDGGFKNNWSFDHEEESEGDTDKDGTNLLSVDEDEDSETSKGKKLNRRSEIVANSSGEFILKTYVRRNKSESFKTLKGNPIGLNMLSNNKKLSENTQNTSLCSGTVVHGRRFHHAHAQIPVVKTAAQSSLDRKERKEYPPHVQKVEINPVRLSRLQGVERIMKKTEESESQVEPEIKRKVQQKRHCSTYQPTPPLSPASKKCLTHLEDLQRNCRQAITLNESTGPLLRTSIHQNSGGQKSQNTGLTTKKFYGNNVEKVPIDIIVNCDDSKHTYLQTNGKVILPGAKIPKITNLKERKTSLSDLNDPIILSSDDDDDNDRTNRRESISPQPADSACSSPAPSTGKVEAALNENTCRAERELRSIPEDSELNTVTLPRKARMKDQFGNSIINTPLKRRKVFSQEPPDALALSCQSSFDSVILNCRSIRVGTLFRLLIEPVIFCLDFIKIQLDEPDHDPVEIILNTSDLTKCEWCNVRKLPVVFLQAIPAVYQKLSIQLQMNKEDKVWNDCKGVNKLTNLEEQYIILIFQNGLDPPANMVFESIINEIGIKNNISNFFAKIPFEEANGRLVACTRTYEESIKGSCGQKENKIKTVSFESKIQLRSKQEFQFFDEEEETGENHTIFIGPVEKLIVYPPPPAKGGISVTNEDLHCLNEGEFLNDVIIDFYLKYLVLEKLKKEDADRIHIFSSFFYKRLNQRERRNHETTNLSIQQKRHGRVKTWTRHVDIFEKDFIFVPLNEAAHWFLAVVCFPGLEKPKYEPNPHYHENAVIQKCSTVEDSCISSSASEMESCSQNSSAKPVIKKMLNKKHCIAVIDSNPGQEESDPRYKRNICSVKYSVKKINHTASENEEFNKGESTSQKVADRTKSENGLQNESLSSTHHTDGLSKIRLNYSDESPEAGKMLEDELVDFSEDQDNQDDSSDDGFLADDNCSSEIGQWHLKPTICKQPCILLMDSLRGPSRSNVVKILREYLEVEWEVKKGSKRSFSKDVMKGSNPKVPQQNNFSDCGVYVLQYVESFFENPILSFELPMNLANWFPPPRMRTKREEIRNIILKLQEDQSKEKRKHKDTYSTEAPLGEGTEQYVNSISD

[5] = target: T5, Caspase-3 (Homo sapiens, UniProt P42574); assay: SAR Analysis of small molecule inhibitors of Sentrin-specific proteases (SENPs) using a Caspase-3 Selectivity assay. [Related pubchem assays (depositor defined):AID2540, AID2599, AID434973, AID489001]; type: functional
T5 sequence (P42574 whole entry): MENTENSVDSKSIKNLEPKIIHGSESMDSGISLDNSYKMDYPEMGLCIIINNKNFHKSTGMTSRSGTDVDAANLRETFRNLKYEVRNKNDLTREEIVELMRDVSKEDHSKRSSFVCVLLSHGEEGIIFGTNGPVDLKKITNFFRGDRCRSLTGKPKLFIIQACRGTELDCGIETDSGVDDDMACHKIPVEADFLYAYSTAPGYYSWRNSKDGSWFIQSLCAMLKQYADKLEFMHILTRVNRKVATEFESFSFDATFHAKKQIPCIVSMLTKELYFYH

[6] = target: Luciferin 4-monooxygenase (Photinus pyralis, UniProt P08659); assay: Counter Screen for Luciferase-based Assay Positives. [Related pubchem assays: 620, 618, 411 ]
Chain of Luciferin 4-monooxygenase (P08659 whole entry): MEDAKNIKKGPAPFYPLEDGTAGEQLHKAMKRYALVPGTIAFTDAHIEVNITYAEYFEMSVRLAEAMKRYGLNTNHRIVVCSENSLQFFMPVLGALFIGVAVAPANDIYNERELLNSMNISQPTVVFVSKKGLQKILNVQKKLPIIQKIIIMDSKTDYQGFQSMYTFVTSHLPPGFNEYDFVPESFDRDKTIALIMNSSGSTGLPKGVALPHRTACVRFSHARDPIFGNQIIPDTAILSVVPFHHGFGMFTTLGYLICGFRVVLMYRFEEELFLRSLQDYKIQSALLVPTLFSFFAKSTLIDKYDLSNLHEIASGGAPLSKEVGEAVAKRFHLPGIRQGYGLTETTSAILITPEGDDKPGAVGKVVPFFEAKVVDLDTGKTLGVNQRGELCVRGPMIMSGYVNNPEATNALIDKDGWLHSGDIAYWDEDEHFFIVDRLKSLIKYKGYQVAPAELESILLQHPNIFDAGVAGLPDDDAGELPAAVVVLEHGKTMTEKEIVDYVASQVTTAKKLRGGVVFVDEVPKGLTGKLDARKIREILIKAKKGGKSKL

[7] = system: HT-1080; assay: HT1080 cell viability loss – fluorescence readout (AID 620); type: functional, cell-based; conditions: Homo sapiens

| IC50 [1] | IC50 [3] | IC50 [4] | IC50 [5] | Compound | IC50 [2] | EC50 [6] | EC50 [7] |
| --- | --- | --- | --- | --- | --- | --- | --- |
| > 99 µM (inactive) | > 50 µM (not active) | > 99 µM (inactive) | > 99 µM (inactive) | CC1CCc2c(sc(NC(=O)c3ccc(Cn4cc(Br)cn4)o3)c2C(N)=O)C1 (configuration not stated) | > 99 µM (inactive) |  |  |
|  |  |  |  | Cc1cc(C)c(OCC(=O)Nc2cccc(O)c2)cc1C |  | 3.52 µM (active) | > 50 µM (not active) |
